Experimental data reported in EP4782448A1, “SUBSTITUTED PYRIDOTRIAZOLE COMPOUND, AND PREPARATION METHOD THEREFOR AND USE THEREOF” (Origiant Pharmaceutical Co., Ltd., priority 2023, dated 2025).

Each compound was assayed on HT-29 cells (assay: In vitro assay for protection of HT-29 cells from necroptosis (TNFα/Smac mimetic/Z-VAD-FMK induction, CCK8 readout)). Settings: TNFα/Smac mimetic/Z-VAD-FMK for 24 h; inhibition of necroptosis; read-out: HT-29 (EC50).
Assay type: cell-based
`Cn1cc(C(=O)Nc2nc3cc(-c4ccc5c(c4)c(C(=O)N[C@@H](CF)c4cccc(F)c4)cn5C)ccn3n2)cn1` [Compound 155] gave an EC50 of less than 1 nM.
`CC(C)Nc1nc2cc(-c3ccc4c(c3)c(C(=O)N[C@@H](CF)c3ccc(F)cc3)cn4C)ccn2n1` [Compound 99] showed an EC50 of less than 1 nM.
`C[C@H](NC(=O)c1cn(C)c2ccc(-c3ccn4nc(NC(=O)CN(C)C)nc4c3)cc12)c1ccc(Cl)cc1` [Compound 78] showed an EC50 of less than 1 nM.
In the case of `C[C@H](NC(=O)c1cn(C)c2ccc(-c3ccn4nc(NC(=O)CN5C[C@H](O)CC5=O)nc4c3)cc12)c1ccc(F)cc1` [Compound 4], the EC50 is reported as 10 to 100 nM.
In the case of `C[C@H](NC(=O)c1cn(C)c2ccc(-c3ccn4nc(NC5CCOC5)nc4c3)cc12)c1ccc(F)cc1` (stereo partly shown) [Compound 107], the EC50 is reported as less than 1 nM.
`CC(c1ccc(F)cc1)n1cnc(-c2cn(C)c3ccc(-c4ccn5nc(NC(=O)c6cnn(C)c6)nc5c4)cc23)n1` (stereo not shown) [Compound 208] gave an EC50 of 100 to 1000 nM.
In the case of `CC[C@H](NC(=O)c1cn(C)c2ccc(-c3ccn4nc(NC(=O)CN5CCOCC5)nc4c3)cc12)c1ccc(F)cc1` [Compound 197], the EC50 is reported as less than 1 nM.
`CC1CN(CC(=O)Nc2nc3cc(-c4ccc5c(c4)c(C(=O)N[C@@H](C)c4ccc(Cl)cc4)cn5C)ccn3n2)CCO1` (stereo partly shown) [Compound 84] was tested, and the EC50 was less than 1 nM.
In the case of `C[C@@H]1CN(CC(=O)Nc2nc3cc(-c4ccc5c(c4)c(C(=O)N[C@@H](C)c4ccc(Cl)cc4)cn5C)ccn3n2)C[C@H](C)O1` [Compound 85], the EC50 is reported as less than 1 nM.
`CO[C@@H](C)C(=O)Nc1nc2cc(-c3ccc4c(c3)c(C(=O)N[C@@H](CF)c3ccc(F)cc3)cn4C)ccn2n1` [Compound 98] showed an EC50 of less than 1 nM.
In the case of `Cn1cc(C(=O)N[C@@H](CF)c2ccc(F)cc2)c2cc(-c3ccn4nc(NC(=O)C5CCOC5)nc4c3)ccc21` (stereo partly shown) [Compound 109], the EC50 is reported as 1 to 10 nM.
Compound `COC1CCN(CC(=O)Nc2nc3cc(-c4ccc5c(c4)c(C(=O)N[C@@H](C)c4ccc(F)cc4)cn5C)ccn3n2)CC1` [Compound 24] has an EC50 of less than 1 nM.
Work on `C[C@H](NC(=O)c1cn(C)c2ccc(-c3ccn4nc(NC(=O)N5CCOCC5)nc4c3)cc12)c1cccc(F)c1` [Compound 118] yielded an EC50 of less than 1 nM.
For `C[C@H](NC(=O)c1cn(C)c2ccc(-c3ccn4nc(NC(=O)CN5CC[C@H](F)C5)nc4c3)cc12)c1ccc(F)cc1` [Compound 21], the EC50 was less than 1 nM.
Compound `Cn1cc(C(=O)NC2(c3ccc(F)cc3)COC2)c2cc(-c3ccn4nc(NC(=O)C5CC5)nc4c3)ccc21` [Compound 148] has an EC50 of 10 to 100 nM.
In the case of `C[C@H](NC(=O)c1cn(C)c2ccc(-c3ccn4nc(NC(=O)N5CCOCC5)nc4c3)cc12)c1ccc(F)cc1` [Compound 116], the EC50 is reported as less than 1 nM.
Work on `C[C@H](NC(=O)c1cn(C)c2ccc(-c3ccn4nc(NC(=O)CN5CCOC[C@H]5C)nc4c3)cc12)c1ccc(Cl)cc1` [Compound 81] yielded an EC50 of less than 1 nM.
Work on `CC(=O)Nc1nc2cc(-c3ccc4c(c3)c(C(=O)N[C@@H]3C[C@H]3c3ccc(F)c(F)c3)cn4C)ccn2n1` [Compound 125] yielded an EC50 of 1000 to 10000 nM.
`CC(=O)N1CCN(CC(=O)Nc2nc3cc(-c4ccc5c(c4)c(C(=O)N[C@@H](C)c4ccc(F)cc4)cn5C)ccn3n2)CC1` [Compound 53] gave an EC50 of less than 1 nM.
Work on `C[C@H](NC(=O)c1cn(C)c2ccc(-c3ccn4nc(NC(=O)CC5CCCCC5)nc4c3)cc12)c1ccc(F)cc1` [Compound 13] yielded an EC50 of less than 1 nM.
`C[C@H](NC(=O)c1cn(C)c2ccc(-c3ccn4nc(NC(=O)CN5CCOCC5C(=O)O)nc4c3)cc12)c1ccc(F)cc1` (stereo partly shown) [Compound 33] was tested, and the EC50 was 1000 to 10000 nM.
`Cn1cc(C(=O)N[C@H]2CCCc3cc(F)ccc32)c2cc(-c3ccn4nc(NC(=O)CC#N)nc4c3)ccc21` [Compound 142] showed an EC50 of 10 to 100 nM.
With `Cn1cc(C(=O)N[C@@H](CF)c2ccc(F)cc2)c2cc(-c3ccn4nc(NCC5CC5)nc4c3)ccc21` [Compound 108] the EC50 was less than 1 nM.
`CC(C)NCC(=O)Nc1nc2cc(-c3ccc4c(c3)c(C(=O)N[C@@H](C)c3ccc(F)cc3)cn4C)ccn2n1` [Compound 67] gave an EC50 of less than 1 nM.
In the case of `COCC(=O)Nc1nc2cc(-c3ccc4c(c3)c(C(=O)N[C@@H](CF)c3ccc(F)cc3)cn4C)ccn2n1` [Compound 97], the EC50 is reported as less than 1 nM.
